Laboratory results as given in patent US20220378699A1, “SELF-E[…] EXTRACT” (ISRAEL PLASTICS AND RUBBER CENTER LTD., priority 2019, published 2022).
Read-outs that look alike come from different tables or passages of the source.

Experiment: In-vivo evaluation: phytocannabinoid serum concentrations after oral administration
Parameters: species or system mice (C57BL/6 J)
Conditions: male, C57BL/6J, mouse, mice, 5 mg CBD/kg, 90 min after dosing, average ± standard error
Description: Animal studies were performed in compliance with the Guide for the Care and Use of Laboratory Animals established by the National Institutes of Health. All procedures and protocols were approved by the Technion Administrative Panel of Laboratory Animal Care (#:IL_050-05-2018).
Subjects 10 adult male mice (C57BL/6 J; The Jackson Laboratory), weighing 20-30 gr were housed in standard laboratory conditions with controlled temperature, humidity, light/dark cycle, ad libitum access to water and regular diet. The experiment was performed at noon, during the light cycle.
CME tea was prepared by pouring 13.3 ml of hot di-ionized water (80° c) over 20 mg of dry SE particles, resulting in CME concentration of […]. The mixture was then genteelly stirred until complete dissolution was observed.
The control solution was prepared by dissolving CME in a solution of 1:1:18 EtOH: Cremophor: PBS. First, 8.5 mg of CME were dissolved in 0.5 ml of EtOH. After that 0.5 ml of Cremophor was added and the mixture was stirred for one hour. Finally, 9 ml of PBS were added, and the mixture was stirred for 30 minutes. Both CME tea and control solution concentrations were calculated to match a dose of 5 mg CBD/kg for a volume intake of 200 μl and an average mouse weight of 25 gr.
For both the control group (5 mice) and the experiment group (5 mice) a dose of 200 μl was orally administered via direct injection to the stomach.
The mice were sacrificed 1.5 hours after oral administration. Blood samples were immediately taken and stored for further examination.
A sample of 600 μl of an extraction solution containing 0.1% v/v acetic acid in a methanol: acetonitrile 1:1 mixture, spiked with 20 ng/ml deuterated internal standards (ISs) was added to 200 μl serum sample. Samples were than vortexed and centrifuged in order to enable protein and cell precipitation. 3 ml of 0.1% v/v acetic acid in water was then added to the supernatants and the sample was loaded onto Agela Cleanert C8 solid phase extraction (SPE) cartridges (500 mg of sorbent, 50 μm particle size). Elution of phytocannabinoids from the columns was done using 2 ml of 0.1% v/v acetic acid in methanol, followed by an evaporation and reconstituted in 100 μl ethanol.
Cannabinoid quantitation was performed as described by P. Berman et al. (Berman et al., 2018).
Phytocannabinoids serum concentrations were evaluated 90 min after oral administration to mice, as detailed above. The control group included a Cremophor EL (castor oil) based emulsion formulation, widely used for its potent solubilizing effect (Comelli F, Giagnoni G, Bettoni I, Colleoni M, 2008). The study group included the F2 tea formulation prepared at 0.62 mg CBD/mL, with both formulations providing 5mg/kg of CBD per body weight.

[1] = CME in Cremophor EL emulsion (1:1:18 EtOH:Cremophor:PBS), read-out: Serum concentration, Control group
[2] = po, F2 tea formulation, read-out: Serum Concentration, Experiment Group

| Compound | concentration at 90 min [1] | concentration at 90 min [2] |
| --- | --- | --- |
| CCCCCc1cc(O)c2c(c1)OC(C)(C)c1ccc(C)cc1-2 [CBN, cannabinol] | 100 ± 5 ng/mL | 125 ± 12 ng/mL |
| CCCCCc1cc(O)c2c(c1)OC(C)(CCC=C(C)C)C=C2 (centres unmarked) [CBC, cannabichromene] | 247 ± 48 ng/mL | 210 ± 72 ng/mL |
| C=C(C)[C@@H]1CCC(C)=C[C@H]1c1c(O)cc(CCCCC)cc1O [CBD, cannabidiol] | 3100 ± 970 ng/mL | 1500 ± 130 ng/mL |
| CCCCCc1cc(O)c2c(c1)OC(C)(C)[C@@H]1CCC(C)=C[C@@H]21 [THC, (—)-trans-Δ^9-tetrahydrocannabinol] | 343 ± 90 ng/mL | 115 ± 15 ng/mL |
